Consider 5 compounds from ChEMBL document CHEMBL2321716, “Exploring a new frontier in cancer treatment: targeting the ubiquitin and ubiquitin-like activating enzymes” (J Med Chem, 2013).

Values after ≈ are worked out from the molar mass of the structure shown.

Test [1] is described as follows: Inhibition of N-terminal GST-tagged human UAE-catalyzed [32P]-AMP:[a-32P]-ATP exchange expressed in HI5 insect cells by TLC analysis.
Test [2] in a line: Inhibition of N-terminal GST-tagged human UAE-catalyzed UAE-Ub thioester intermediate formation expressed in HI5 insect cells after 5 mins by SDS-PAGE analysis.
Test [3] can be described thus: Inhibition of mouse recombinant His6-tagged UAE-catalyzed UAE-Ub thioester intermediate formation expressed in insect cells by SDS-PAGE analysis.
Test [4] in a line: Inhibition of N-terminal GST-tagged human UAE-catalyzed UAE-Ub thioester intermediate formation expressed in HI5 insect cells after 30 mins by immunoblotting analysis.
The nature of test [5]: Cytotoxicity against human OVACR3 cells assessed as induction of cell death after 72 hrs by Alamar blue assay. The settings on record: OVACR3, 72 h, read-out: LD50 (the source's name). The format is functional. Background: The colour change of resazurin is a common sign of viable cells or microbes.
Test [6] in a line: Cytotoxicity against human U226 cells assessed as induction of cell death after 72 hrs by Alamar blue assay. The format is functional. The settings on record: U226, 72 h, read-out: LD50 (the source's name).
Test [7] is described as follows: Inhibition of GST-tagged human recombinant UAE-catalyzed UAE-Ub thioester intermediate formation after 30 mins by fluorescence assay.
Test [8] is described as follows: Cytotoxicity against human MDA468 cells assessed as induction of cell death after 72 hrs by Alamar blue assay. The format is functional. The settings on record: MDA-MB-468, 72 h, read-out: LD50 (the source's name).
Test [9] is described as follows: Cytotoxicity against human Leukemia cells assessed as induction of cell death after 72 hrs by Alamar blue assay. The format is functional. The settings on record: read-out: LD50 (the source's name).
The test system of test [10] is PPC-1. Put plainly: Cytotoxicity against human PPC1 cells assessed as induction of cell death after 72 hrs by Alamar blue assay. The format is functional. The settings on record: PPC-1, 72 h, read-out: LD50 (the source's name).
For test [11], the system named is FaDu. Put plainly: Cytotoxicity against human FADU cells assessed as induction of cell death after 72 hrs by Alamar blue assay. The format is functional. The settings on record: read-out: LD50 (the source's name).
In test [12] the test system is LP-1. Description: Cytotoxicity against human LP-1 cells assessed as induction of cell death after 72 hrs by Alamar blue assay. The format is functional. The settings on record: LP-1, 72 h, read-out: LD50 (the source's name).
Test [13] can be described thus: Cytotoxicity against human KMS11 cells assessed as induction of cell death after 72 hrs by Alamar blue assay. The format is functional. The settings on record: KMS-11, 72 h, read-out: LD50 (the source's name).
Test [14] concerns T47D. Description: Cytotoxicity against human T47D cells assessed as induction of cell death after 72 hrs by Alamar blue assay. The format is functional. The settings on record: read-out: LD50 (the source's name).
Test [15] relates to HeLa. Put plainly: Cytotoxicity against human HeLa cells assessed as induction of cell death after 72 hrs by Alamar blue assay. The format is functional. The settings on record: read-out: LD50 (the source's name).
For test [16], the system named is DU-145. Put plainly: Cytotoxicity against human DU145 cells assessed as induction of cell death after 72 hrs by Alamar blue assay. The format is functional. The settings on record: DU-145, 72 h, read-out: LD50 (the source's name).
For test [17], the system named is HT-29. Description: Cytotoxicity against human HT-29 cells assessed as induction of cell death after 72 hrs by Alamar blue assay. The settings on record: HT-29, 72 h, read-out: LD50 (the source's name). The format is functional.
Test [18] can be described thus: Inhibition of UAE-catalyzed UAE-Ub thioester intermediate formation in human RPE cells by immunoblotting analysis. The format is cell-based.
Test [19] can be described thus: Inhibition of UAE (unknown origin)-catalyzed UAE-Ub intermediate formation. Further details: species or system Homo sapiens.

As usually defined, the IC50 is the concentration needed to halve the response being measured. For the compound `CCCCCCCCCCNCCSSCc1ccc(Cl)cc1`, the IC50 in test [1] was determined as 13 µM; in test [2], 9 µM.
Turning to `CCOC(=O)c1ccc(N2NC(=O)/C(=C/c3ccc([N+](=O)[O-])o3)C2=O)cc1`, the values for the IC50 in test [1], in [3] and in test [4] were 6.4 µM, less than 10 µM and less than 10 µM, respectively.
Turning to `O=C1NN(c2ccc(F)c(Cl)c2)C(=O)/C1=C\c1ccc([N+](=O)[O-])o1`, the CC50 in [5] was 15 µM; in test [6] it was no more than 3 µM; in [8] it was 15 µM; in test [9] it was less than 10 µM; in [10] it was 15 µM; in test [11] it was 15 µM. Also, the CC50 in [12] was no more than 3 µM; in test [13] it was no more than 3 µM; in test [14], 15 µM; in test [15], 15 µM; in test [16] it was 15 µM; in test [17], 15 µM. For the same compound, the concentration for half-maximal inhibition (IC50) in test [7] was found to be 20 µM.
`CCOC(=O)N1CCN(/[N+]([O-])=N/Oc2ccc([N+](=O)[O-])cc2[N+](=O)[O-])CC1` returned a half-inhibitory concentration (IC50) in test [18] of 2 µM.
`CC(C)(O)/C=C/[C@@]12[C@H]3[C@@H](O)[C@@H]4O[C@@H]4[C@]1(O)OC(C)(C)[C@@H]2C=C1C(=O)[C@H]2O[C@H]2[C@H](O)[C@H]13` [PANEPOPHENANTHRIN] yielded an IC50 in [19] of 17 µg/mL (≈ 40.4 µM).
